Laboratory results reported in ChEMBL document CHEMBL1129734, “Synthesis and structure-activity relationships of a new model of arylpiperazines. 1. 2-[[4-(o-methoxyphenyl)piperazin-1-yl]methyl]-1, 3-dioxoperhydroimidazo[1,5-alpha]pyridine: a selective 5-HT1A receptor agonist” (J Med Chem, 1996).

Assays:
[1] = biological target: T1, 5-hydroxytryptamine receptor 1A (Rattus norvegicus, UniProt P19327); assay: Binding affinity towards rat 5-hydroxytryptamine 1A receptor using [3H]8-OH-DPAT radioligand.
T1 sequence (P19327 whole entry): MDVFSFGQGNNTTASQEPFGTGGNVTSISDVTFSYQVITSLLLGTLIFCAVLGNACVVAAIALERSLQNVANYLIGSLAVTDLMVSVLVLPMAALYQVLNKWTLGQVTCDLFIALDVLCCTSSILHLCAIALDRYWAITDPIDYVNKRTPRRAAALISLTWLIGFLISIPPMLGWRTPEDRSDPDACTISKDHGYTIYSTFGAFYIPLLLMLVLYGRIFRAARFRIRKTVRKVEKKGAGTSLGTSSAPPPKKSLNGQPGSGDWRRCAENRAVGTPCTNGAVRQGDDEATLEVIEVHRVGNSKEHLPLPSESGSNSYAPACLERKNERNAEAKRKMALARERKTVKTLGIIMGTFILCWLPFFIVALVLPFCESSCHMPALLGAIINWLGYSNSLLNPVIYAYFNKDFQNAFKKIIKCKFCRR

[2] = biological target: T2, Adrenergic receptor alpha-1 (Rattus norvegicus, UniProt P15823+P23944+P43140); assay: Binding affinity towards alpha-1 adrenergic receptor using [3H]prazosin radioligand.; type: protein assay
T2 sequence (P15823 whole entry): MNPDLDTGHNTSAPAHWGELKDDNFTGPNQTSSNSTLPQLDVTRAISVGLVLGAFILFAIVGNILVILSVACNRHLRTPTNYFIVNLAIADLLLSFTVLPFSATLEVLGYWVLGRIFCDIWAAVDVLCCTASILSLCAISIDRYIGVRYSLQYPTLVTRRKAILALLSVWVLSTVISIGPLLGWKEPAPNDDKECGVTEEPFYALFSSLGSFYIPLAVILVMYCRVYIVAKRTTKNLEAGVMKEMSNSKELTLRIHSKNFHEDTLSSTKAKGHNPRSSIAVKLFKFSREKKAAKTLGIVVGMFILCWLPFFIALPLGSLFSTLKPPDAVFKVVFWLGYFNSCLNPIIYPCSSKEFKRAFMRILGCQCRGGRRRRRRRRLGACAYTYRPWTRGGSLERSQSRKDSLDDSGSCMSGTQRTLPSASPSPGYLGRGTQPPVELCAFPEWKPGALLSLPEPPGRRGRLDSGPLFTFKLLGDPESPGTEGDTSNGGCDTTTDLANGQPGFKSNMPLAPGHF
T2 sequence (P23944 whole entry): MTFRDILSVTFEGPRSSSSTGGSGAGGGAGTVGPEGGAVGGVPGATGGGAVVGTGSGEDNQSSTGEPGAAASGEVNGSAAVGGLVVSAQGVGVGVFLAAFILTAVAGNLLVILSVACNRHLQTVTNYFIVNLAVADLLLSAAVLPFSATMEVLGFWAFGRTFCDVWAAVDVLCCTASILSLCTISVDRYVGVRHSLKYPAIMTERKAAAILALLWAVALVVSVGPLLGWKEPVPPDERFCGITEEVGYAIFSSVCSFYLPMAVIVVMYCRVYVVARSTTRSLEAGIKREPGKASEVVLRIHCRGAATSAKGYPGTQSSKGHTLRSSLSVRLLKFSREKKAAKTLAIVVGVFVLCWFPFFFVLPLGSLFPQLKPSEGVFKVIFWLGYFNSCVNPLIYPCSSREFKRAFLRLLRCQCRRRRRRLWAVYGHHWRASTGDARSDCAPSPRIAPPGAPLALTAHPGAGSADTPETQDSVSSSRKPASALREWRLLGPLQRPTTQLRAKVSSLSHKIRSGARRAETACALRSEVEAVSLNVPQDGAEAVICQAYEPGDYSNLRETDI
T2 sequence (P43140 whole entry): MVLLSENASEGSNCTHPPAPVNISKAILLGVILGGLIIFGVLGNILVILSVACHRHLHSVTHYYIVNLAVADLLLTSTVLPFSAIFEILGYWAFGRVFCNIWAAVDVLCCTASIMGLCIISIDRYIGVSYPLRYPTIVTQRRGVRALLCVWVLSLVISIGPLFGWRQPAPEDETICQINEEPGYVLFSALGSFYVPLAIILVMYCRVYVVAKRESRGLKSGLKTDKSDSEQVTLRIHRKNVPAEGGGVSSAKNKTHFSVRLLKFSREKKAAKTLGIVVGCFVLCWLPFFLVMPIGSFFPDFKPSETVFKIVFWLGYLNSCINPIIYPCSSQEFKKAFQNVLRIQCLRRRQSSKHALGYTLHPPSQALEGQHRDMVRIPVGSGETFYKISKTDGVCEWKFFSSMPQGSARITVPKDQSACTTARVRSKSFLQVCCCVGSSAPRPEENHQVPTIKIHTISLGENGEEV

D(2) dopamine receptor = D(2) dopamine receptor (Rattus norvegicus, UniProt P61169); assay: Binding affinity towards dopamine receptor D2 using [3H]-raclopride radioligand.
Chain of D(2) dopamine receptor (P61169 whole entry): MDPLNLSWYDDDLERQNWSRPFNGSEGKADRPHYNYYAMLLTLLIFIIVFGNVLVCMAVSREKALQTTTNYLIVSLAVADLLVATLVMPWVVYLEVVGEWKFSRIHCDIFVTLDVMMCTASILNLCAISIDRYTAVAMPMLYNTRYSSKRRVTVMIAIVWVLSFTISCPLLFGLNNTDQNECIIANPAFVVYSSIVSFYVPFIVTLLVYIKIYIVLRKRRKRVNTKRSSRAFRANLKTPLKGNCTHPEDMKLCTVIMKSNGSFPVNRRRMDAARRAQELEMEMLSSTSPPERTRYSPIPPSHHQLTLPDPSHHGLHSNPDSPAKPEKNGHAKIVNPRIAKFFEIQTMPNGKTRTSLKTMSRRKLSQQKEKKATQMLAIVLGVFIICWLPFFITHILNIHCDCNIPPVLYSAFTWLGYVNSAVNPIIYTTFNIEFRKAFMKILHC

`COc1ccccc1N1CCN(CCN2C(=O)C3CCCN3C2=O)CC1` (centres undefined) was tested, and the Ki [1] was 234 nM, the Ki [2] was 190 nM and the Ki (D(2) dopamine receptor) was 361 nM.
`COc1ccccc1N1CCN(CCCCN2C(=O)C3CCCCN3C2=O)CC1` (centres undefined) was tested, and the Ki [1] was 8.8 nM, the Ki [2] was 8.6 nM and the Ki (D(2) dopamine receptor) was greater than 1000 nM.
With `O=C1C2CCCCN2C(=O)N1CCCN1CCN(c2cccc(Cl)c2)CC1` (centres undefined) the Ki [1] was 53.6 nM, the Ki [2] was 17.9 nM and the Ki (D(2) dopamine receptor) was greater than 1000 nM.
For `O=C1C2CCCCN2C(=O)N1CCN1CCN(c2ccccc2)CC1` (centres undefined), the Ki [1] was greater than 1000 nM, the Ki [2] was greater than 1000 nM and the Ki (D(2) dopamine receptor) was greater than 1000 nM.
Work on `O=C1C2CCCN2C(=O)N1CCCN1CCN(c2cccc(C(F)(F)F)c2)CC1` (centres undefined) yielded a Ki [1] of 3.8 nM, a Ki [2] of 109 nM and a Ki (D(2) dopamine receptor) greater than 1000 nM.
Work on `O=C1C2CCCN2C(=O)N1CCCCN1CCN(c2cccc(Cl)c2)CC1` (centres undefined) yielded a Ki [1] of 11.3 nM, a Ki [2] of 9.6 nM and a Ki (D(2) dopamine receptor) of 151 nM.
Work on `O=C1C2CCCN2C(=O)N1CCCCN1CCN(c2ccc([N+](=O)[O-])cc2)CC1` (centres undefined) yielded a Ki [1] greater than 1000 nM, a Ki [2] of 247 nM and a Ki (D(2) dopamine receptor) greater than 1000 nM.
`O=C1C2CCCN2C(=O)N1CCCCN1CCN(c2ccccc2)CC1` (centres undefined) was tested, and the Ki [1] was 24.8 nM, the Ki [2] was 26.4 nM and the Ki (D(2) dopamine receptor) was 416 nM.
`O=C1C2CCCN2C(=O)N1CCN1CCN(c2ccc(F)cc2)CC1` (centres undefined) showed a Ki [1] greater than 10000 nM, a Ki [2] greater than 1000 nM and a Ki (D(2) dopamine receptor) greater than 10000 nM.
Molecule `COc1ccccc1N1CCN(CN2C(=O)C3CCCN3C2=O)CC1` (centres undefined) has a Ki [1] of 34.9 nM, a Ki [2] of 500 nM and a Ki (D(2) dopamine receptor) greater than 1000 nM.
For `COc1ccccc1N1CCN(CCCCN2C(=O)c3ccccc3C2=O)CC1` [NAN-190], the Ki (D(2) dopamine receptor) was 64 nM.
`O=C1C2CCCN2C(=O)N1CCN1CCN(c2cccc(C(F)(F)F)c2)CC1` (centres undefined) gave a Ki [1] of 123 nM, a Ki [2] greater than 1000 nM and a Ki (D(2) dopamine receptor) greater than 1000 nM.
Work on `O=C1C2CCCCN2C(=O)N1CCN1CCN(c2cccc(Cl)c2)CC1` (centres undefined) yielded a Ki [1] of 128 nM, a Ki [2] of 375 nM and a Ki (D(2) dopamine receptor) greater than 1000 nM.
`O=C1C2CCCN2C(=O)N1CN1CCN(c2ccc(F)cc2)CC1` (centres undefined) was tested, and the Ki [1] was 500 nM, the Ki [2] was greater than 1000 nM and the Ki (D(2) dopamine receptor) was greater than 10000 nM.
With `O=C1C2CCCCN2C(=O)N1CCCN1CCN(c2cccc(C(F)(F)F)c2)CC1` (centres undefined) the Ki [1] was 5.7 nM, the Ki [2] was 90.4 nM and the Ki (D(2) dopamine receptor) was greater than 1000 nM.
`O=C1C2CCCN2C(=O)N1CCN1CCN(c2ccc([N+](=O)[O-])cc2)CC1` (centres undefined) gave a Ki [1] greater than 10000 nM, a Ki [2] greater than 10000 nM and a Ki (D(2) dopamine receptor) greater than 10000 nM.
In the case of `O=C1C2CCCCN2C(=O)N1CN1CCN(c2cccc(C(F)(F)F)c2)CC1` (centres undefined), the Ki [1] is reported as 78.6 nM, the Ki [2] is reported as greater than 1000 nM and the Ki (D(2) dopamine receptor) is reported as greater than 1000 nM.
For `O=C1C2CCCCN2C(=O)N1CCN1CCN(c2ccc([N+](=O)[O-])cc2)CC1` (centres undefined), the Ki [1] was greater than 10000 nM, the Ki [2] was greater than 10000 nM and the Ki (D(2) dopamine receptor) was greater than 10000 nM.
Molecule `O=C1C2CCCN2C(=O)N1CCCCN1CCN(c2cccc(C(F)(F)F)c2)CC1` (centres undefined) has a Ki [1] of 2.4 nM, a Ki [2] of 64.9 nM and a Ki (D(2) dopamine receptor) greater than 1000 nM.
Molecule `O=C1C2CCCN2C(=O)N1CN1CCN(c2cccc(C(F)(F)F)c2)CC1` (centres undefined) has a Ki [1] of 120 nM, a Ki [2] greater than 1000 nM and a Ki (D(2) dopamine receptor) greater than 1000 nM.
Work on `O=C1C2CCCCN2C(=O)N1CN1CCN(c2ccc([N+](=O)[O-])cc2)CC1` (centres undefined) yielded a Ki [1] greater than 1000 nM, a Ki [2] greater than 10000 nM and a Ki (D(2) dopamine receptor) greater than 10000 nM.
Molecule `COc1ccccc1N1CCN(CCCN2C(=O)C3CCCCN3C2=O)CC1` (centres undefined) has a Ki [1] of 4.1 nM, a Ki [2] of 9.9 nM and a Ki (D(2) dopamine receptor) greater than 1000 nM.
`O=C1C2CCCN2C(=O)N1CCCN1CCN(c2cccc(Cl)c2)CC1` (centres undefined) showed a Ki [1] of 55.9 nM, a Ki [2] of 21.6 nM and a Ki (D(2) dopamine receptor) greater than 1000 nM.
For `O=C1C2CCCCN2C(=O)N1CCCCN1CCN(c2ccccc2)CC1` (centres undefined), the Ki [2] was 18.6 nM and the Ki (D(2) dopamine receptor) was greater than 1000 nM.
